# pIC50: −log10 of the molar value.
# Molecular target: T1, AKT1-E17K (Homo sapiens, UniProt P31749, E17K)
# T1 construct: host or cells: HEK-293 (ATCC CRL-1573)
# Experiment: NanoBRET Target Engagement (TE) Assay
# Format: cell-based
# Details: full length AKT E17K NanoLuc fusion in transfected HEK-293 cells; 2 hr equilibration with tracer and compound
# Description: NanoBRET is a highly specific and validated cell-based technique for assessing target engagement (Vasta et al., 2018, Cell Chem Biol. 25(2):206-214). The NanoBRET™ Target Engagement (TE) Intracellular Kinase Assays are based on the NanoBRET™ System (Promega Corporation), an energy transfer technique designed to measure molecular proximity in living cells. The NanoBRET™ TE Assays measure the apparent affinity of test compounds by competitive displacement of the NanoBRET™ tracer compound, which is a cell permeable molecule engineered to be reversibly bound to a NanoLuc® luciferase-kinase fusion expressed in cells. For compound screening, when a test compound binds to the selected kinase, the BRET signal is attenuated. For kinase inhibitors in particular, intracellular target selectivity is fundamental to pharmacological mechanism and allows the proteins of interest to be in the correct cellular confirmation. Although non-cell-based techniques have been developed to measure kinase binding or enzymatic inhibition with accuracy and precision, such approaches can fail to accurately predict engagement of the full-length target protein in the more complex and biologically relevant cellular context (Knight and Shokat, 2005, Chem. Biol. 12, 621-637; Smyth and Collins, 2009, J. Chem. Biol. 2, 131-151). […] Briefly, HEK-293 cells (ATCC Cat #CRL-1573) were used for transfection purposes using FuGENE HD Transfection Reagent (Promega Cat #E2311). All cells were evaluated for viability prior to transfection and optimization of the transfection was done prior to experimentation. Greater than 95% viability was used for all experiments. Following transfection, cells were washed and resuspended in Opti-MEM. NanoBRET assays were performed in white, 384-well plates (Corning) at a density of 2×10^5 cells/well. All example compounds were prepared as concentrated stock solutions in DMSO (Sigma-Aldrich). Compounds are dissolved in DMSO to make 10 mM stock solution. Example compounds were transferred as 40 μL of 10 mM stock solution to a 384 pp-plate (LABCYTE, PP-0200) and diluted in 3-fold, 10-point dilution via transferring […] by Apricot liquid handler. A Labcyte ECHO 550 compound dispenser was used to facilitate compound transfer directly to cells. Cells were equilibrated for 2 hr with energy transfer probes and example compound prior to BRET measurements. The AKTE17K (Promega Cat #NV2421) as well as specific probe (NanoBRET tracer, Promega Cat #N264B) was prepared at a concentration of 20× in tracer dilution buffer (12.5 mM HEPES, 31.25% PEG-400, pH 7.5). For target engagement analysis, the energy transfer probes were added to the cells at concentrations optimized for the target in question (AKT E17K). Following compound incubation, NanoBRET NanoGlo Substrate (Promega Cat #N157D) and Extracellular Nanoluc Inhibitor (Promega Cat #N235C) was added according to the manufacturer's recommended protocol, and luminescence was measured on Envision Reader (Perkin Elmer) Multimode Luminometer equipped with 450 nmBPfilter (donor) and 600 nmLPfilter (acceptor), using 0.5 s integration time. Milli-BRET units (mBU) are calculated by multiplying the raw BRET values by 1000. Apparent tracer affinity values (EC50) were determined using the sigmoidal dose-response (variable slope). Competitive displacement data were then plotted and data were fit to determine the EC50 value for each example compound.
# T1 sequence (P31749 whole entry E17K): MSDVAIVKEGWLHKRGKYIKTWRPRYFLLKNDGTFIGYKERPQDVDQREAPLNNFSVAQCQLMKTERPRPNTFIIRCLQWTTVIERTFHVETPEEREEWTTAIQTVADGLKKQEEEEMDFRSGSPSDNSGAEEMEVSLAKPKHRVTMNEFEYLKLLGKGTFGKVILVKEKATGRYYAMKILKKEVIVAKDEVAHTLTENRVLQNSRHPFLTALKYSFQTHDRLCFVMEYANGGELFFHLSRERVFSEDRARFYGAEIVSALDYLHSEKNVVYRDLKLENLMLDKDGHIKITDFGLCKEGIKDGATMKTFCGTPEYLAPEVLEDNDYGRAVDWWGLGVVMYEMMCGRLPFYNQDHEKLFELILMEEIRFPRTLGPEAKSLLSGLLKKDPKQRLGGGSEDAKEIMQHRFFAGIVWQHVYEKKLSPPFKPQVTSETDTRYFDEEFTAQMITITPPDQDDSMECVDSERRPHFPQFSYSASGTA
row,Structure (SMILES),pIC50
1,"C[C@H]1CN(Cc2ccc(-n3c(-c4cccnc4N)nc4ccc(-c5ccccc5)nc43)cc2)C[C@H](C)N1C#N [Example 25, (2S,6S)-4-(4-(2-(2-Aminopyridin-3-yl)-5-phenyl-3H-imidazo[4,5-b]pyridin-3-yl)benzyl)-2,6-dimethylpiperazine-1-carbonitrile]",6.22 to 7.22
2,"N#CNC1CCN(Cc2ccc(-n3c(-c4cccnc4N)nc4cccnc43)cc2)CC1 [Example 1, N-(1-(4-(2-(2-Aminopyridin-3-yl)-3H-imidazo[4,5-b]pyridin-3-yl)benzyl)piperidin-4-yl)cyanamide]",< 6.22
3,"N#CN1CCC2(CCN(Cc3ccc(-n4c(-c5cccnc5N)nc5ccc(-c6ccccc6)nc54)cc3)CC2)C1 [Example 16, 8-(4-(2-(2-Aminopyridin-3-yl)-5-phenyl-3H-imidazo[4,5-b]pyridin-3-yl)benzyl)-2,8-diazaspiro[4.5]decane-2-carbonitrile]",> 7.82
4,"CN(C#N)C1CCN(Cc2ccc(-n3c(-c4cccnc4N)nc4ccc(-c5ccccc5)nc43)cc2)CC1 [Example 14, N-(1-(4-(2-(2-Aminopyridin-3-yl)-5-phenyl-3H-imidazo[4,5-b]pyridin-3-yl)benzyl)piperidin-4-yl)-N-methylcyanamide]",7.22 to 7.82
5,"N#CN1CCC2(CC1)CCN(Cc1ccc(-n3c(-c4cccnc4N)nc4ccc(-c5ccccc5)nc43)cc1)CC2 [Example 17, 9-(4-(2-(2-Aminopyridin-3-yl)-5-phenyl-3H-imidazo[4,5-b]pyridin-3-yl)benzyl)-3,9-diazaspiro[5.5]undecane-3-carbonitrile]",7.22 to 7.82
6,"N#CN1CCN(Cc2ccc(-n3c(-c4cccnc4N)nc4ccc(-c5ccccc5)nc43)cc2)CC12CC2 [Example 33, 7-(4-(2-(2-Aminopyridin-3-yl)-5-phenyl-3H-imidazo[4,5-b]pyridin-3-yl)benzyl)-4,7-diazaspiro[2.5]octane-4-carbonitrile]",6.22 to 7.22
7,"[2H]C([2H])([2H])N(C#N)C1CCN(Cc2ccc(-n3c(-c4cccnc4N)nc4ccc(-c5ccccc5)nc43)cc2)CC1 [Example 41, N-(1-(4-(2-(2-Aminopyridin-3-yl)-5-phenyl-3H-imidazo[4,5-b]pyridin-3-yl)benzyl)piperidin-4-yl)-N-(methyl-d3)cyanamide]",7.22 to 7.82
8,"N#CNN1CCN(Cc2ccc(-n3c(-c4cccnc4N)nc4ccc(-c5ccccc5)nc43)cc2)CC1 [Example 42, N-(4-(4-(2-(2-Aminopyridin-3-yl)-5-phenyl-3H-imidazo[4,5-b]pyridin-3-yl)benzyl)piperazin-1-yl)cyanamide]",> 7.82
9,"N#CNC1CCN(Cc2ccc(-n3c(-c4cccnc4N)nc4cc(-c5ccccc5)cnc43)cc2)CC1 [Example 11, N-(1-(4-(2-(2-Aminopyridin-3-yl)-6-phenyl-3H-imidazo[4,5-b]pyridin-3-yl)benzyl)piperidin-4-yl)cyanamide]",6.22 to 7.22
10,"N#CN1CCCC2(CCN(Cc3ccc(-n4c(-c5cccnc5N)nc5ccc(-c6ccccc6)nc54)cc3)C2)C1 (stereo not shown) [Example 21, 2-(4-(2-(2-Aminopyridin-3-yl)-5-phenyl-3H-imidazo[4,5-b]pyridin-3-yl)benzyl)-2,7-diazaspiro[4.5]decane-7-carbonitrile]",< 6.22
11,"N#CN[C@@H]1CCCN(Cc2ccc(-n3c(-c4cccnc4N)nc4ccc(-c5ccccc5)nc43)cc2)C1 [Example 9, (R)—N-(1-(4-(2-(2-Aminopyridin-3-yl)-5-phenyl-3H-imidazo[4,5-b]pyridin-3-yl)benzyl)piperidin-3-yl)cyanamide]",7.22 to 7.82
12,"N#CN1CCCN(Cc2ccc(-n3c(-c4cccnc4N)nc4ccc(-c5ccccc5)nc43)cc2)CC1 [Example 12, 4-(4-(2-(2-Aminopyridin-3-yl)-5-phenyl-3H-imidazo[4,5-b]pyridin-3-yl)benzyl)-1,4-diazepane-1-carbonitrile]",6.22 to 7.22
13,"N#CN1CC2(CCN(Cc3ccc(-n4c(-c5cccnc5N)nc5ccc(-c6ccccc6)nc54)cc3)C2)C1 [Example 18, 6-(4-(2-(2-Aminopyridin-3-yl)-5-phenyl-3H-imidazo[4,5-b]pyridin-3-yl)benzyl)-2,6-diazaspiro[3.4]octane-2-carbonitrile]",6.22 to 7.22
14,"N#CNC1CC2(CCN(Cc3ccc(-n4c(-c5cccnc5N)nc5ccc(-c6ccccc6)nc54)cc3)CC2)C1 [Example 13, N-(7-(4-(2-(2-Aminopyridin-3-yl)-5-phenyl-3H-imidazo[4,5-b]pyridin-3-yl)benzyl)-7-azaspiro[3.5]nonan-2-yl)cyanamide]",> 7.82
15,"N#CN1CCC2(CC1)CN(Cc1ccc(-n3c(-c4cccnc4N)nc4ccc(-c5ccccc5)nc43)cc1)C2 [Example 22, 2-(4-(2-(2-Aminopyridin-3-yl)-5-phenyl-3H-imidazo[4,5-b]pyridin-3-yl)benzyl)-2,7-diazaspiro[3.5]nonane-7-carbonitrile]",6.22 to 7.22
16,"N#CN1CCC2(C1)CN(Cc1ccc(-n3c(-c4cccnc4N)nc4ccc(-c5ccccc5)nc43)cc1)C2 [Example 38, 2-(4-(2-(2-Aminopyridin-3-yl)-5-phenyl-3H-imidazo[4,5-b]pyridin-3-yl)benzyl)-2,6-diazaspiro[3.4]octane-6-carbonitrile]",> 7.82
17,"N#CN1CC[C@]2(CCN(Cc3ccc(-n4c(-c5cccnc5N)nc5ccc(-c6ccccc6)nc54)cc3)C2)C1 [Example 40, (S)-7-(4-(2-(2-Aminopyridin-3-yl)-5-phenyl-3H-imidazo[4,5-b]pyridin-3-yl)benzyl)-2,7-diazaspiro[4.4]nonane-2-carbonitrile]",> 7.82
18,"N#CN1C2CCC1CN(Cc1ccc(-n3c(-c4cccnc4N)nc4ccc(-c5ccccc5)nc43)cc1)C2 [Example 28, 3-(4-(2-(2-Aminopyridin-3-yl)-5-phenyl-3H-imidazo[4,5-b]pyridin-3-yl)benzyl)-3,8-diazabicyclo[3.2.1]octane-8-carbonitrile]",6.22 to 7.22
19,"C[C@@H]1CN(Cc2ccc(-n3c(-c4cccnc4N)nc4ccc(-c5ccccc5)nc43)cc2)CCN1C#N [Example 27, (R)-4-(4-(2-(2-Aminopyridin-3-yl)-5-phenyl-3H-imidazo[4,5-b]pyridin-3-yl)benzyl)-2-methylpiperazine-1-carbonitrile]",< 6.22

# Reference: patent US20260193274A1, “AKT1 MODULATORS” (Alterome Therapeutics, Inc., priority 2022, published 2026)
